From US11725217B2, “Methods to enhance myocardial regeneration and/or repair” (Regents of the University of Minnesota, priority 2018, dated 2023) come the findings set out here.

Experiment [1] has as its system isolated mouse neonatal cardiomyocytes. The experiment in a line: Proliferation of cultured neonatal (P1) cardiomyocytes (cell number, EdU incorporation, Ki67, FACS). In kind it is cell-based. Particulars: for Ki67+-Actinin+ cells: versus DMSO control; for EdU+ cardiomyocytes: pan-caspase inhibition experiment, 48 h, SAG with/without pan-caspase inhibition.
Description: Immunohistochemistry was performed on cryosections (10 μm thick) using standard procedures (Singh et al., 2012; Singh et al. 2007; Adhikari et al., 2011; Singh et al., 2010). Briefly, sections were rehydrated, permeabilized and blocked with 10% normal donkey serum (NDS), 0.1% Triton X-100 in PBS at room temperature and incubated overnight at 4° C. with primary antibodies: α-actinin (Abeam; 1:300), desmin (Novus biologicals; 1:300), Shh (Santa Cruz Biotechnology; 1:200), endomucin (Abeam; 1:100), SM22 (Abeam; 1:400), α-phospho-Histone H3 (Ser10) (Millipore; 1:100), Ki67 (Abcam; 1:200), PCNA (Santa Cruz Biotechnology; 1:100), Mef2a (Santa Cruz Biotechnology; 1:100), Smoothened (Abcam; 1:200), Nkx 2-5 (Santa Cruz Biotechnology; 1:100) and GFP (ThermoFisher Scientific; 1:300) sera. Sections were rinsed and incubated with combinations of secondary antibodies (1:400) including Alexa 488, Alexa 594, Cy3 and Cy5 (Jackson ImmunoResearch Laboratories). EdU staining was performed using the EdU labeling kit (Life Technologies)
Ventricular cardiomyocytes were isolated using previously published protocols (Collesi et al. 2008). Briefly, ventricles were dissected from P1 pups, minced in CBFHH (calcium and bicarbonate-free Hanks with Hepes) buffer. Subsequently, the minced ventricles were digested in CBFHH buffer containing 1.75 mg/ml of trypsin and 20 μg/ml of DNaseII (Sigma-Aldrich). Cells were preplated for 1 h (3 times) onto 100-mm primaria (Corning Life Sciences) dishes in culture medium containing 10% serum to remove fibroblasts. Unattached cardiomyocytes were plated at a desired density. […] After 12 h, the culture medium was changed and cells were subjected to the different treatments (SAG; 4 μg/mL and CyA; 5 μg/ml) and analyzed. For apoptotic pathway inhibition, neonatal cardiomyocytes were treated with cell permeable small molecule inhibitor (Z-VAD-FMK; R&D Systems) with or with SAG. For the EdU incorporation assay, cardiomyocytes were incubated with 20 μM EdU for 48 h and fixed using 4% PFA for 10 min at room temperature. […] For qPCR and FACS analysis, cells were harvested using trypsin and processed for further analysis. […] For the EdU incorporation assay, cardiomyocytes were incubated with 20 μM EdU for 48 h and fixed using 4% PFA for 10 min at room temperature.
The subject of another experiment is regenerating newt heart. Particulars: continuous blockade of HH signals, CyA 2 μg/mL in aquarium water daily; n=8, p<0.05.
In experiment [2] the test system is HH signaling. The experiment in a line: qPCR of HH pathway and cell cycle transcripts in neonatal cardiomyocytes. In kind it is cell-based, mouse. Particulars: for Gli1 expression (qPCR) / Gli3 expression (qPCR) / Mycn transcripts (qPCR): isolated mouse neonatal cardiomyocytes. How it is done: (§1) RNA isolation and qPCR analysis from newt tissue was performed as previously described^5. For chamber based qPCR analysis, the regenerating heart including BA, AT and ventricle was harvested and rinsed in PBS to remove blood cells. Subsequently, the BA, AT and ventricle were collected from heart tissue (n=12) for further processing. RNA isolation from cultured cardiomyocytes was performed using a standard protocol as per the manufacturer's instructions. Total RNA was isolated using the miRVANA kit (Ambion) and cDNA was made using SuperScript […] kit (Invitrogen).
Briefly, ventricles were dissected from P1 pups, minced in CBFHH (calcium and bicarbonate-free Hanks with Hepes) buffer. […] Cells were preplated for 1 h (3 times) onto 100-mm primaria (Corning Life Sciences) dishes in culture medium containing 10% serum to remove fibroblasts. Unattached cardiomyocytes were plated at a desired density. […] For apoptotic pathway inhibition, neonatal cardiomyocytes were treated with cell permeable small molecule inhibitor (Z-VAD-FMK; R&D Systems) with or with SAG. For the EdU incorporation assay, cardiomyocytes were incubated with 20 μM EdU for 48 h and fixed using 4% PFA for 10 min at room temperature. […] For qPCR and FACS analysis, cells were harvested using trypsin and processed for further analysis. For the time-lapse microscopic experiments, isolated P7 mCherry+ cardiomyocytes were plated on glass-bottom petri dish coated with fibronectin. After 2 h of attachment, media was changed containing DMSO or SAG and the petri dish was placed in the environmental chamber for imaging. […] Briefly, the adult heart tissue was dissociated by perfusion of a collagenase type 2 enzyme solution. Isolated cardiomyocytes were cultured in 1% serum media in the presence of DMSO or SAG. For the EdU incorporation assay, cardiomyocytes were incubated with 20 μM EdU for 48 h and fixed using 4% PFA for 10 min at room temperature.

In the next experiment the test system is P7 cardiomyocytes. Nature of the experiment: Proliferation of isolated P7 cardiomyocytes (EdU incorporation, time-lapse microscopy). In kind it is cell-based, mouse. Here is the method: Ventricular cardiomyocytes were isolated using previously published protocols (Collesi et al. 2008). Briefly, ventricles were dissected from P1 pups, minced in CBFHH (calcium and bicarbonate-free Hanks with Hepes) buffer. Subsequently, the minced ventricles were digested in CBFHH buffer containing 1.75 mg/ml of trypsin and 20 μg/ml of DNaseII (Sigma-Aldrich). Cells were preplated for 1 h (3 times) onto 100-mm primaria (Corning Life Sciences) dishes in culture medium containing 10% serum to remove fibroblasts. Unattached cardiomyocytes were plated at a desired density. Using this protocol, we routinely obtained >85-90% cardiomyocytes (confirmed using immunohistochemical techniques and an alpha-actinin antibody). […] For apoptotic pathway inhibition, neonatal cardiomyocytes were treated with cell permeable small molecule inhibitor (Z-VAD-FMK; R&D Systems) with or with SAG. For the EdU incorporation assay, cardiomyocytes were incubated with 20 μM EdU for 48 h and fixed using 4% PFA for 10 min at room temperature. P7 cardiomyocytes were isolated using a similar protocol as that of the P1 cardiomyocyte isolation protocol with modifications including the perfusion based tissue digestion using collagenase type-2 enzyme solution. >95% rod-shaped binucleated cardiomyocytes were routinely obtained using this protocol. For qPCR and FACS analysis, cells were harvested using trypsin and processed for further analysis. For the time-lapse microscopic experiments, isolated P7 mCherry+ cardiomyocytes were plated on glass-bottom petri dish coated with fibronectin. After 2 h of attachment, media was changed containing DMSO or SAG and the petri dish was placed in the environmental chamber for imaging. Adult cardiomyocyte isolation was performed (Mahmoud et al., 2013). Briefly, the adult heart tissue was dissociated by perfusion of a collagenase type 2 enzyme solution. Isolated cardiomyocytes were cultured in 1% serum media in the presence of DMSO or SAG. For the EdU incorporation assay, cardiomyocytes were incubated with 20 μM EdU for 48 h and fixed using 4% PFA for 10 min at room temperature.

The next experiment deals with day-60 hiPSC-CMs. Nature of the experiment: Proliferation of day-60 hiPSC-derived cardiomyocytes (EdU, Ki67). Particulars: 48 h, n=3, p<0.01. In kind it is cell-based, human. Here is the method:
The media was then changed with RPMI/B27 minus insulin and BMP4 and FGF from d1-d2. On d3, the medium was changed with RPMI/B27 minus insulin and IWP-4. The differentiated cells were maintained in RPMI/B27 with insulin media from d5-d60. […] Immunohistochemical analysis was performed as described previously.

Experiment [3] relates to adult mouse cardiomyocytes. Nature of the experiment: EdU incorporation in isolated adult cardiomyocytes. In kind it is cell-based. Particulars: n=3, p<0.05. How it is done:
(§2) Ventricular cardiomyocytes were isolated using previously published protocols (Collesi et al. 2008). Briefly, ventricles were dissected from P1 pups, minced in CBFHH (calcium and bicarbonate-free Hanks with Hepes) buffer. Subsequently, the minced ventricles were digested in CBFHH buffer containing 1.75 mg/ml of trypsin and 20 μg/ml of DNaseII (Sigma-Aldrich). Cells were preplated for 1 h (3 times) onto 100-mm primaria (Corning Life Sciences) dishes in culture medium containing 10% serum to remove fibroblasts. Unattached cardiomyocytes were plated at a desired density. Using this protocol, we routinely obtained >85-90% cardiomyocytes (confirmed using immunohistochemical techniques and an alpha-actinin antibody). […] For apoptotic pathway inhibition, neonatal cardiomyocytes were treated with cell permeable small molecule inhibitor (Z-VAD-FMK; R&D Systems) with or with SAG. For the EdU incorporation assay, cardiomyocytes were incubated with 20 μM EdU for 48 h and fixed using 4% PFA for 10 min at room temperature. P7 cardiomyocytes were isolated using a similar protocol as that of the P1 cardiomyocyte isolation protocol with modifications including the perfusion based tissue digestion using collagenase type-2 enzyme solution. >95% rod-shaped binucleated cardiomyocytes were routinely obtained using this protocol. […]

Experiment [4] concerns isolated mouse neonatal cardiomyocytes. Nature of the experiment: Live/dead assay in cultured neonatal cardiomyocytes. The class given is cell-based. Particulars: 48 h; n=3. How it is done: as §2
Experiment [5] has as its system HH signaling. The experiment in a line: qPCR in P7 cardiomyocytes. Particulars: P7-isolated cardiomyocytes. The class given is cell-based, mouse. How it is done: as §1
Ventricular cardiomyocytes were isolated using previously published protocols (Collesi et al. 2008). Briefly, ventricles were dissected from P1 pups, minced in CBFHH (calcium and bicarbonate-free Hanks with Hepes) buffer. Subsequently, the minced ventricles were digested in CBFHH buffer containing 1.75 mg/ml of trypsin and 20 μg/ml of DNaseII (Sigma-Aldrich). Cells were preplated for 1 h (3 times) onto 100-mm primaria (Corning Life Sciences) dishes in culture medium containing 10% serum to remove fibroblasts. Unattached cardiomyocytes were plated at a desired density. Using this protocol, we routinely obtained >85-90% cardiomyocytes (confirmed using immunohistochemical techniques and an alpha-actinin antibody). […]

Where a SMILES comes first, the peptide text is derived from it. The star is where a group is joined. Cbz = O=C(OCc1ccccc1)*; CH2F = FC*

Description for regenerating newt heart: Adult red-spotted newts, Notophthalmus viridescens, were housed as described in Singh et al. (2012). For heart resection surgery, adult newts were anesthetized in 0.1% MS-222 solution for 10 min. Each newt was placed in a supine position under a stereomicroscope. The outer skin was wiped using 70% ethanol-chlorhexidine solution and the pericardial sac was opened to expose the heart. The apex of the ventricle was resected (˜25-30%) using iricdectomy scissors. Following resection, the blood flow was controlled by the formation of the blood clot. The resected heart was maneuvered carefully into the pericardial sac and sutured using 8.0 ethilon monofilament sutures. Following resection surgery, newts were allowed to recover in an isolated tank containing sulfmerazine antibiotic solution and later placed in their designated aquariums. The resected ventricular mass was measured using a Sartorius weighing balance. […] CyA-mediated inhibition of HH signaling was achieved by daily treatment of the resected newts at 2 μg/mL diluted in the aquarium water. At specified time periods, animals were sacrificed and tissues were collected for further processing. For EdU labelling, the resected newts were injected intraperitoneally (i.p.) with 100 μg/gm of EdU for a 7 day period prior to sacrifice and harvested for immunohistochemical analysis. […]

`c1ccc2c(Oc3nc(Nc4ccc(N5CCOCC5)cc4)c4ncn(C5CCCCC5)c4n3)cccc2c1` [Purmorphamine]: in experiment [1] (isolated neonatal cardiomyocytes pulsed with EdU, FIG. 20), the “cardiomyocyte proliferation (Actinin+-EdU+, immunohistochemical images)” value is listed as “promotes cardiomyocyte proliferation”.

Regarding `CC1=C2C[C@H]3[C@@H](CC=C4C[C@@H](O)CC[C@@]43C)[C@@H]2CC[C@]12O[C@@H]1C[C@H](C)CN[C@H]1[C@H]2C` [CyA, Cyclopamine], the “heart regeneration following injury” value in the experiment on regenerating newt heart was “complete ablation of heart regeneration and induction of scar formation”. Besides, the “Ki67+-Actinin+ cells” value in experiment [1] (n=3) is reported as “not detected”. In addition, in the experiment on HH signaling [2], the “Gli1 expression (qPCR)” value is “reduced”, the “Gli3 expression (qPCR)” value was “increased” and the “Mycn transcripts (qPCR)” value is listed as “reduced expression”.

On to `CNC1CCC(N(Cc2cccc(-c3ccncc3)c2)C(=O)c2sc3ccccc3c2Cl)CC1` (stereo not drawn) [SAG], for which the “α-Actinin+-EdU+ cardiomyocytes” value in the experiment with P7 cardiomyocytes (P7 cardiomyocytes, n=4) was “increased number”. The “increase in number of mono-, bi-, and multi-nucleated cardiomyocytes” value with P7 cardiomyocytes (P7 cardiomyocytes, n=4, p<0.05) was about 3 fold. The “dividing αMHC-mCherry+ P7 cardiomyocytes (time-lapse microscopy)” value with P7 cardiomyocytes (none found in DMSO control) was “multiple dividing”. In addition, in the experiment on day-60 hiPSC-CMs, the “increased α-Actinin+-EdU+ cardiomyocytes” value is given as 2 fold and the “increased α-Actinin+-Ki67+ cardiomyocytes” value was about 3 fold. The “α-Actinin+-EdU+ cardiomyocytes” value in experiment [3] is reported as “increased number”. Moreover, the “live/dead assay versus control” value in experiment [4] is given as “No difference”. Further, in experiment [1] (SAG 4 μg/mL, EdU 48 h, n=4, p<0.05), the “increase in α-Actinin+-EdU+ cells compared to controls” value is listed as 2.5 fold. Moreover, in experiment [1] (n=3, p<0.05), the “increased cardiomyocyte proliferation, FACS analysis of α-Actinin+-EdU+ population” value was found to be 2.5 fold. Moreover, in experiment [1] (n=3), the “EdU+ cardiomyocytes” value is recorded as “comparable increase” and the “Ki67+-Actinin+ cells” value is “increased number”. Also, the “cardiomyocyte proliferation (α-Actinin+-EdU+)” value in experiment [1] (serum-free conditions, n=3, p<0.05) is given as “increased cardiomyocyte proliferation”. The “number of cultured neonatal cardiomyocytes” value in experiment [1] (various concentrations) is given as “dose-dependent increase”. Further, in the experiment on HH signaling [5], the “expression of Cdkn1b (p27) (qPCR)” value is recorded as “reduced expression”; the “expression of Ptc1, Ccne1 and Ccnd2 (qPCR)” value is “increased expression”. The “Ptc1, Ccnd2, Ccnd1 and Ccne1 transcripts (qPCR)” value in the experiment with HH signaling [2] (HH signaling activation) is “induction of cell cycle kinetics”. Further, in the experiment with HH signaling [2], the “Gli1 expression (qPCR)” value was “induced”, the “Gli3 expression (qPCR)” value is given as “reduced” and the “Mycn transcripts (qPCR)” value is reported as “increased”. Moreover, in the experiment with HH signaling [2] (versus control, data not shown), the “levels of caspase-3 transcripts (qPCR)” value is listed as “unaltered”.

`COC(=O)C[C@H](NC(=O)[C@H](C)NC(=O)[C@@H](NC(=O)OCc1ccccc1)C(C)C)C(=O)CF` [pan-caspase inhibitor, Z-VAD-FMK] (Cbz-Val-Ala-Asp(OMe)-CH2F): in experiment [1] (n=3), the “EdU+ cardiomyocytes” value is given as “did not result in any change”.
